Data on six compounds can be found in PMC12203311, “Design, synthesis, in silico and in vitro evaluation of pyrrole–indole hybrids as dual tubulin and aromatase inhibitors with potent anticancer activities” (RSC Advances, 2025).

Structures are written as SMILES.

One test concerns CCRF-CEM. Kind of test: NCI60 five-dose screen. The class given is cell-based. To be noted: Homo sapiens, leukemia; for CC50: read-out: LC50 (the source's name).
The test system of another test is HT29. Description: NCI60 five-dose screen. The class given is cell-based. To be noted: Homo sapiens, HT-29, HT29, colon cancer; for CC50: read-out: LC50 (the source's name).
Another test deals with MALME-3M. Description: NCI60 five-dose screen. The conditions noted are these: Homo sapiens, melanoma; for CC50: read-out: LC50 (the source's name). The class given is cell-based.
Test [1] concerns NCI60 human cancer cell line panel. Kind of test: NCI60 five-dose screen, ranges over the panel. The class given is cell-based. The conditions noted are these: for GI50: five-dose experiment, all cell lines, read-out: GI50 values (range over the panel).
In the next test the test system is SF-539. Description: NCI60 five-dose screen. The class given is cell-based. The conditions noted are these: Homo sapiens, SF-539, CNS cancer; for CC50: read-out: LC50 (the source's name).
In the next test the test system is HOP-92. Kind of test: NCI60 five-dose screen. To be noted: Homo sapiens, HOP-92, NSC lung cancer; for CC50: read-out: LC50 (the source's name). The class given is cell-based.
For a further test, the system named is SR. Description: NCI60 five-dose screen. The class given is cell-based. To be noted: Homo sapiens, leukemia; for CC50: read-out: LC50 (the source's name).
The target of another test is T1, porcine brain tubulin (Sus scrofa, UniProt P02550+P02554).
T1 construct: a solution containing porcine brain tubulin (2 mg mL^−1); purchased Cytoskeleton BK011P; host or cells: porcine brain (tissue-purified)
T1 sequence (P02554 whole entry): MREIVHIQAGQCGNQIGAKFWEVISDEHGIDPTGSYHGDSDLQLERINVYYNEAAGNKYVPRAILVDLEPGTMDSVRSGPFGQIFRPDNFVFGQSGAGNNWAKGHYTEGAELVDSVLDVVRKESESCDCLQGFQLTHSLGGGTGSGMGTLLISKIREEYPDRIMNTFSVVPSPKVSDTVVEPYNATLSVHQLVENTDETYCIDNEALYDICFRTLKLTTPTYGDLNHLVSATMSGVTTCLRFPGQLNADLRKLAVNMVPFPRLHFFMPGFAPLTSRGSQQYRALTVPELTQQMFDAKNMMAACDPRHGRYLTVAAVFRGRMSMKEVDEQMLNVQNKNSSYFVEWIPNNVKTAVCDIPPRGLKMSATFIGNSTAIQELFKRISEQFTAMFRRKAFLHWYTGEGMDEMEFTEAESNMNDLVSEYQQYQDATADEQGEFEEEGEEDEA
T1 sequence (P02550 whole entry): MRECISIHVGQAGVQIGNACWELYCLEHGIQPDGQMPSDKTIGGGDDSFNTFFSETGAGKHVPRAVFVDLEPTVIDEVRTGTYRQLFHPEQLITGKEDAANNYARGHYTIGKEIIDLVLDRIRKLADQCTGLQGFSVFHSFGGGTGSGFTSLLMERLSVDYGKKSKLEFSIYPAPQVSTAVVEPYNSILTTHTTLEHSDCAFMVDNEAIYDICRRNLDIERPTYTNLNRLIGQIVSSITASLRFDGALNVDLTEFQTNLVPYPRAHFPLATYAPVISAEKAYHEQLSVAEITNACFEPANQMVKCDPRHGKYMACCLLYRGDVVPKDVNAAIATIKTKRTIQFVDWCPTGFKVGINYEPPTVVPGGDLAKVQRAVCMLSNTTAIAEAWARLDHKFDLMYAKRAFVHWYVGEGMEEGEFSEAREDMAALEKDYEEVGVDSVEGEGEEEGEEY
Kind of test: Tubulin polymerisation assay (fluorescence-based). The class given is biochemical. To be noted: 10 µM, 37 °C. The protocol: The tubulin polymerisation experimental protocol followed the method described in this literature.[28] The experimental was using fluorescence-based assay kit (Cytoskeleton, catalog no. BK011P). In Brief, 5 µL of test compounds was added to a 96-well plate, then mix with 50 µL of a solution containing porcine brain tubulin (2 mg mL^−1) in buffer with 20% glycerol and 1 mM GTP. A microplate reader (Varioskan™ LUX multimode microplate reader, Thermo Scientific™) was used to measure fluorescence intensity every 60 seconds for 60 minutes, with excitation at 360 nm and emission at 450 nm, maintained at 37 °C throughout the experiment.

A word on the GI50: it is the concentration at which growth is held to half of that of the control. With `Cc1cc(C)c(/C=N/NC(=O)c2[nH]c3ccc(Br)cc3c2-c2ccccc2)[nH]1` [Derivative 3c, (E)-5-Bromo-N′-((3,5-dimethyl-1H-pyrrol-2-yl)methylene)-3-phenyl-1H-2-carbohydrazide], the concentration for 50% growth inhibition (GI50) in the test with CCRF-CEM is 3070 nM; in the test on HT29, 3530 nM; in the test on MALME-3M, 3160 nM; in test [1], 1.77 to 8.25 µM; in the test on SF-539, 2930 nM; in the test on HOP-92 it was 2610 nM. In addition, the CC50 is more than 100 µM with CCRF-CEM; 46.6 µM in the test with HT29; 38.5 µM in the test with MALME-3M; 32.4 µM in the test with SF-539; 43.5 µM in the test on HOP-92.

With `O=C(N/N=C/c1cc(Br)c(Br)[nH]1)c1[nH]c2ccc(Br)cc2c1-c1ccccc1` [Derivative 3f, (E)-5-Bromo-N′-((4,5-dibromo-1H-pyrrol-2-yl)methylene)-3-phenyl-1H-indole-2-carbohydrazide], the GI50 was 2890 nM in the test with CCRF-CEM; 2330 nM with HT29; 2970 nM with MALME-3M; 0.53 to 6.8 µM in test [1]; 1780 nM in the test on SF-539; 1880 nM in the test on HOP-92. The CC50 with CCRF-CEM is more than 100 µM; in the test with HT29, 20.8 µM; in the test on MALME-3M it was 42.4 µM; with SF-539, 15.7 µM; with HOP-92, 46 µM.

For `O=C(N/N=C/c1cc(Cl)c[nH]1)c1[nH]c2ccc(Br)cc2c1-c1ccccc1` [Derivative 3h, (E)-5-Bromo-N′-((4-chloro-1H-pyrrol-2-yl)methylene)-3-phenyl-1H-indole-2-carbohydrazide], the GI50 was 132 nM with CCRF-CEM; 287 nM in the test with HT29; 179 nM in the test with SR; 645 nM with MALME-3M; 231 nM with SF-539; 1190 nM in the test on HOP-92. For the same compound, the CC50 is more than 100 µM in the test with CCRF-CEM; 7.2 µM with HT29; 4.6 µM in the test on SR; 46.1 µM in the test on MALME-3M; 0.8 to 7.2 µM in test [1] (HL-60 (TB), K-562, SR, NCI-H460, COLO 205, HCC-2998, HT29, SK-MEL-5, OVCAR-8, read-out: LC50 values (range over named cell lines)); 22.1 µM in the test with SF-539. For the same compound, the CC50 in the test on HOP-92 was 55.4 µM. The “RFU in tubulin polymerization assay” value on porcine brain tubulin is listed as approximately 40 arbitrary units.

As to `CCc1ccc(/C=N/NC(=O)c2[nH]c3ccc(Br)cc3c2-c2ccccc2)[nH]1` [Derivative 3s, (E)-5-Bromo-N′-((5-ethyl-1H-pyrrol-2-yl)methylene)-3-phenyl-1H-indole-2-carbohydrazide], the GI50 in the test on CCRF-CEM was 375 nM; with HT29 it was 298 nM; with SR it was 419 nM; with MALME-3M, 880 nM; in the test on SF-539 it was 225 nM; in the test on HOP-92, 2010 nM. Also, the CC50 in the test with CCRF-CEM was more than 100 µM; in the test with HT29 it was 33.8 µM; with SR, more than 100 µM; with MALME-3M it was 46.5 µM; with SF-539 it was 29.8 µM; in the test on HOP-92, 40.1 µM. Moreover, the “RFU in tubulin polymerization assay” value on porcine brain tubulin is on record as approximately 55 arbitrary units.

On to `CCc1c[nH]c(/C=N/NC(=O)c2[nH]c3ccc(Br)cc3c2-c2ccccc2)c1` [Derivative 3t, (E)-5-Bromo-N′-((4-ethyl-1H-pyrrol-2-yl)methylene)-3-phenyl-1H-indole-2-carbohydrazide], for which the 50% growth inhibitory concentration (GI50) with CCRF-CEM amounted to 368 nM; in the test with HT29 it was 308 nM; with SR, 446 nM; in the test on MALME-3M, 1720 nM; in the test on SF-539, 203 nM; in the test on HOP-92, 2570 nM. Further, the CC50 in the test on CCRF-CEM is more than 100 µM; in the test with HT29, 21 µM; with SR, more than 100 µM; with MALME-3M, 48 µM; in the test with SF-539 it was 19.6 µM; in the test on HOP-92 it was 33 µM. The “RFU in tubulin polymerization assay” value on porcine brain tubulin is approximately 55 arbitrary units.

With `CCc1cc[nH]c1/C=N/NC(=O)c1[nH]c2ccc(Br)cc2c1-c1ccccc1` [Derivative 3u, (E)-5-Bromo-N′-((3-ethyl-1H-pyrrol-2-yl)methylene)-3-phenyl-1H-indole-2-carbohydrazide], the GI50 in the test with CCRF-CEM came to 2350 nM; in the test with HT29, 2170 nM; in the test on SR, 2020 nM; in the test with MALME-3M, 3500 nM; with SF-539 it was 3170 nM; with HOP-92, 3800 nM. For the same compound, the CC50 in the test with CCRF-CEM was 63.8 µM; with HT29, 39.3 µM; with SR it was more than 100 µM; with MALME-3M, 40 µM; in the test with SF-539 it was 35.6 µM; with HOP-92, 44.3 µM. The “tubulin inhibition” value on porcine brain tubulin is given as “weak tubulin inhibitors”.
